Tests used:
EV71 strain H = assay: CPE inhibition assay, EV71 strain H in Vero cells; format: cell-based, enterovirus 71; conditions: Enterovirus A
Description: (§1) The anti-EV71 activity of formononetin was assayed by CPE inhibition method. Briefly, cells (3 × 10^4 cells/well) were plated into 96-well culture plates for incubation of 24 h. The medium was then removed and cells were infected with EV71 of 80 pfu/well. Then, various concentrations of formononetin were supplemented for incubation of another 48 h. The IC50 defined as the minimal concentration of inhibitor required to inhibit 50% of CPE was determined by Reed & Muench method. The selectivity index (SI) was calculated as the ratio of TC50/IC50 [19].

Vero cells = assay: Cytotoxicity assay (MTS) in Vero cells; format: cell-based; conditions: 3 days
Description: (§2) Cytotoxic effect of formononetin on Vero or SK-N-SH cells was assayed by MTS (promega) assay. Briefly, cells (3 × 10^4 cells/well) were seeded into 96-well culture plates and were incubated overnight. Then, the medium was removed and different concentrations of formononetin were applied in triplicate. After 3 days’ incubation, the cytotoxicity of formononetin was determined by MTS assay. The TC50 was defined as the concentration that inhibits 50% cellular growth in comparison with the controls and the TC0 was defined as the maximal non-toxicity dose.

EV71 strain BrCr = assay: CPE inhibition assay, EV71 strain BrCr in Vero cells; format: cell-based, enterovirus 71; conditions: Enterovirus A
Description: as §1

SK-N-SH cells = assay: Cytotoxicity assay (MTS) in SK-N-SH cells; format: cell-based; conditions: 3 days
Description: as §2

CVB6 (strain Schmitt) = assay: CPE inhibition assay for anti-CVBs, CVB6 in Vero cells; format: cell-based, coxsackievirus B6; conditions: Enterovirus B, CVB6, 100 TCID50, Vero cells
Description: The anti-virus activity of formononetin on CVBs was also assayed by CPE method. Briefly, cells (3 × 10^4 cells/well) were plated into 96-well culture plates for incubation of 24 h. The medium was removed and cells were infected with 100 TCID50 of CVB2, CVB6 or CVB3. Then, various concentrations of formononetin were supplemented for incubation of another 48 h. The IC50 was determined by Reed and Muench method. The SI was calculated as the ratio of TC50/IC50 [19].

EV71 VP1 protein = assay: Immunofluorescence assay of EV71 VP1 protein in SK-N-SH cells; format: cell-based, enterovirus 71; conditions: EV71 SHZH98 160 pfu/well, 24 h treatment
Source text: Figure 2 The antiviral effect of formononetin and pirodavir against EV71 in SK-N-SH cells. (A) Formononetin and pirodavir reduced the expression of EV71 VP1 protein in SK-N-SH cells by western blot assay. (B) Formononetin and pirodavir reduced the expression of EV71 VP1 protein in SK-N-SH cells by immunofluorescence assay. Cells were examined using a fluorescence microscopy (×100). (C) Formononetin and pirodavir reduced the expression of EV71 VP1 RNA by one-step qRT-PCR assay. *P < 0.001 ^# P < 0.05.
SK-N-SH cells grown on glass coverslips (Thermo) were infected with EV71 (SHZH98) of 160 pfu/well for 2 h. Then, various concentrations of formononetin were supplemented for incubation of another 24 h. After incubation, the culture medium was removed and the cells were washed and fixed. The cells were permeabilized in 0.5% Triton X-100 at room temperature for 15 min and blocked in PBS containing 1% BSA for 60 min at room temperature. Cells were then incubated with an anti-EV71 VP1 antibody (Abnova) at a dilution of 1: 500 for 2 h at room temperature. After washing three times with PBS, the samples were reacted with Alexa Fluor 488-labeled goat anti-mouse secondary antibody (Beyotime Institute of Biotechnology, China) for 1 h at room temperature. After washing with PBS, images were taken using a fluorescence microscope (Olympus, IX71).

Structure (SMILES)	IC50 (EV71 strain H) [µM]	TC0 (maximal non-toxicity dose) (Vero cells) [µmol/L]	TC50 (50% toxicity concentration) (Vero cells) [µM]	TC0 (maximal non-toxicity dose) (Vero cells; listed as formononetin) [µmol/L]	TC50 (50% toxicity concentration) (Vero cells; listed as formononetin) [µM]	IC50 (EV71 strain BrCr) [µM]	TC0 (maximal non-toxicity dose) (SK-N-SH cells) [µmol/L]	TC50 (50% toxicity concentration) (SK-N-SH cells) [µM]	TC0 (maximal non-toxicity dose) (SK-N-SH cells; listed as formononetin) [µmol/L]	TC50 (50% toxicity concentration) (SK-N-SH cells; listed as formononetin) [µM]	IC50 (CVB6 (strain Schmitt)) [µM]	Expression of EV71 VP1 protein (immunofluorescence assay) (EV71 VP1 protein)
COc1ccc(-c2coc3cc(O)ccc3c2=O)cc1 [Formononetin]	11.1 ± 9.23	41.42 ± 0	149.38 ± 12.15	41.42	149.38	6.47 ± 4.4	55.92 ± 0	198.80 ± 6.02	55.92	198.80	5.33 ± 1.48	
CCOC(=O)c1ccc(OCCC2CCN(c3ccc(C)nn3)CC2)cc1 [Pirodavir, reference compound]												reduced
